Key:
[1] = system: DSS-induced colitis in mice; assay: DSS-induced colitis, therapeutic effect of GMTX; format: in vivo, mouse; settings: 5 mg/kg oral on day 3, 5 and 6 of DSS
Protocol: Colitis was induced in mice by addition of 2% (wt/vol) DSS (MW 36-50 KD molecular weight, MP Biomedicals, OH) in their drinking water for the duration of the study. DSS solution was freshly prepared every other day. Body weight and physical activity were monitored daily. To test the protective effect of GDNs, mice fasted for 4 h were orally given either PBS or 10 mg/kg of GDNs daily for 7 days and then treated with 2% DSS in drinking water for 7 days to induce colitis with continued administration of GDNs. To test the therapeutic effect of GMTX, colitis was first induced in mice by providing 2% DSS in their drinking water. On day 3, 5 and 6 of DSS-induced colitis, mice were treated with free MTX (5 mg/kg body weight) or GMTX (MTX equaled to 5 mg/kg) by oral administration. […]
For histopathology, tissues were fixed in 10% neutral formalin and then embedded in paraffin. […] Histological examination was performed in a blinded fashion and the severity of colitis was scored as described previously. […] E-cadherin and F4/80 binding was detected by Alexa Fluor 488 conjugated goat anti-mouse IgG or goat anti-rat IgG (1:600, Invitrogen), respectively. […]
To assess the local levels of IL-6, IL-1β, TNF-α, organ cultures were generated from naïve, GDN, PBS/DSS and GDN/DSS challenged mice. […] The local levels of PGE2 were determined by a PGE2-specific EIA (Cayman Chemical, Ann Arbor, Mich.) as described previously. […]

Raw264.7 macrophages = assay: Internalization assay (GDN uptake with endocytosis inhibitors); format: cell-based, mouse; settings: 30 min pretreatment: 50 μM amiloride, 12.5 μM chlorpromazine or 100 μM indomethacin; 2 μg/ml PKH26-labeled GDNs, 3 h
Protocol: Macrophages were plated on Lab-Tek chamber slide (Sigma) and incubated for 24 h in growth medium. Before the uptake assay, GDNs were labeled with PKH26, sucrose gradient purified and diluted in PBS. Uptake was performed by incubating cell cultures with 2 μg/ml of GDNs for 3 h in a humid chamber (37° C., 5% CO2). For inhibition experiments, cell cultures were pre-incubated with individual inhibitors for 30 min before performing the uptake experiments.

Row | SMILES | symptoms of colitis vs PBS treated mice (colon tissue damage, colon length reduction, E-cadherin expression) [1] | inhibition of GDN uptake (Raw264.7 macrophages)
1 | CN(Cc1cnc2nc(N)nc(N)c2n1)c1ccc(C(=O)N[C@@H](CCC(=O)O)C(=O)O)cc1 [free MTX, methotrexate] | aggravated symptoms of colitis | 
2 | COc1ccc2c(c1)c(CC(=O)O)c(C)n2C(=O)c1ccc(Cl)cc1 [indomethacin] |  | did not significantly alter

— patent US9717733B2, “Edible plant-derived microvesicle compositions including conjugated therapeutic agents and methods for using the same” (priority 2014, dated 2017)
